pIC50: −log10 of the molar value.
Legend:
leukaemia THP-1 = assay: In vitro cytotoxicity against human cancer cell lines (sulforhodamine B), leukaemia THP-1; format: cell-based; conditions: 48 hours, read-out: % GROWTH INHIBITION leukaemia THP-1; for inhibition at 10 µM: 1 × 10^−5 M; for inhibition at 50 µM: 5 × 10^−5 M
Protocol: (§1) The human cancer cell lines procured from National Cancer Institute, Frederick, U.S.A., were used in present study. Cells were grown in tissue culture flasks in complete growth medium (RPMI-1640 medium with 2 mM glutamine, 100 μg/mL streptomycin, pH 7.4, sterilized by filtration and supplemented with 10% fetal bovine serum and 100 units/ml penicillin before use) at 37 QC in an atmosphere of 5% CO2 and 90% relative humidity in a carbon dioxide incubator. The cells at subconfluent stage were harvested from the flask by treatment with trypsin (0.05% in PBS containing 0.02% EDTA) for determination of cytotoxicity. The cell suspension of the required cell density was prepared in complete growth medium with gentamycin (50 μg/mL) for determination of cytotoxicity.
(§2) Stock solutions of 2×10^−2M of test materials were prepared in DMSO. The stock solutions were serially diluted with complete growth medium containing 50 μg/ml of gentamycin to obtain working test solution of 2×10^−5M to obtain final concentration of 1×10^−5M respectively.
(§3) In vitro cytotoxicity against human cancer cell lines was determined (Monks et al., J. Natl. Cancer Inst. 1991, 83, 757-766). The 100 μL of cell suspension was added to each well of the 96-well tissue culture plate. The cells were incubated for 24 hours (at 37° C. in an atmosphere of 5% CO2 and 90% relative humidity in a carbon dioxide incubator). Test materials in complete growth medium (100 μL) were added after 24 hours incubation to the wells containing cells. The plates were further incubated for 48 hours in a carbon dioxide incubator after addition of test material. The cell growth was stopped by gently layering trichloroacetic acid (50 μL, 50% w/v) on top of the medium in all the wells. The plates were incubated at 4° C. for one hour to fix the cells attached to the bottom of the wells. The liquid of all the wells was then gently decanted and discarded. The plates were washed five times with distilled water and air-dried. Cell growth was measured by staining with sulforhodamine B dye (Skehan et al., J. Natl. Cancer Inst. 1990, 82, 1107-1112). The adsorbed dye was dissolved in Tris-Buffer (100 μL, 0.01M, pH 10.4) and plates were gently stirred for 10 minutes on a mechanical stirrer. The optical density (OD) was recorded on ELISA reader at 540 nm.
(§4) The cell growth was calculated by subtracting mean OD value of respective blank from the mean OD value of experimental set. Percent growth in presence of test material was calculated considering the growth in absence of any test material as 100% and in turn percent growth inhibition in presence of test material was calculated. Suitable blank, controls and positive controls were included in the study.

Lung cancer cell A-549 = assay: In vitro cytotoxicity against human cancer cell lines (sulforhodamine B), Lung A-549; format: cell-based; conditions: 48 hours, read-out: % GROWTH INHIBITION Lung A-549; for inhibition at 10 µM: A549, 1 × 10^−5 M; for inhibition at 50 µM: A549, 5 × 10^−5 M
Protocol: as §1, §2, §3, §4

[1] = test system: colon HCT-15 human cancer cell line; assay: In vitro cytotoxicity against human cancer cell lines (sulforhodamine B), colon HCT-15; format: cell-based; conditions: 1 × 10^−5 M, 48 hours, read-out: % GROWTH INHIBITION colon HCT-15
Protocol: as §1, §2, §3, §4

[2] = test system: colon HCT-15 human cancer cell line; assay: as above; format: cell-based; conditions: 48 hours, read-out: % GROWTH INHIBITION colon HCT-15; for inhibition at 50 µM: 5 × 10^−5 M
[3] = test system: human liver cell line of HEP-2 type; assay: In vitro cytotoxicity against human cancer cell lines (sulforhodamine B), Liver HEP-2; format: cell-based; conditions: 1 × 10^−5 M, 48 hours
Protocol: as §1, with “The cell suspension of the required cell density was prepared in complete growth medium with gentamycin (50 μg/mL) for determination of cytotoxicity.” left out
In vitro cytotoxicity against human cancer cell lines was determined (Monks et al., J. Natl. Cancer Inst. 1991, 83, 757-766). […] Cell growth was measured by staining with sulforhodamine B dye (Skehan et al., J. Natl. Cancer Inst. 1990, 82, 1107-1112). […] The optical density (OD) was recorded on ELISA reader at 540 nm.
as §4, with “Suitable blank, controls and positive controls were included in the study.” left out

[4] = test system: Ehrlich ascites tumor (EAT) cells; conditions: MTT assay, read-out: IC50 (drug concentration causing 50% growth inhibition of the tumor cells); cited from earlier work
CMV [5] = conditions: cited from earlier work
P388 leukemia = conditions: NCI Report on NSC 369397; cited from earlier work
[6] = test system: cell line panels consisting of 60 lines; conditions: nine disease-related subpanels; cited from earlier work
CMV [7] = conditions: cited from earlier work; remark: listed apart in the source

Row | SMILES | inhibition at 10 µM (leukaemia THP-1) [%] | inhibition at 50 µM (leukaemia THP-1) [%] | inhibition at 10 µM (Lung cancer cell A-549) [%] | inhibition at 50 µM (Lung cancer cell A-549) [%] | inhibition at 10 µM [1] [%] | inhibition at 50 µM [2] [%] | other results
1 | C[C@H]1[C@H](OCc2cn(-c3ccc(-c4ccc(-n5cc(CO[C@@H]6O[C@@H]7O[C@@]8(C)CC[C@H]9[C@H](C)CC[C@@H]([C@H]6C)[C@@]79OO8)nn5)cc4)cc3)nn2)O[C@@H]2O[C@@]3(C)CC[C@H]4[C@H](C)CC[C@@H]1[C@@]24OO3 [Compound 12] | 75 | 80 | 56 | 64 | 75 | 78 | 
2 | CO[C@@]12[C@H](COC(N)=O)C3=C(C(=O)C(C)=C(N)C3=O)N1C[C@@H]1N[C@@H]12 [Mitomycin-c] |  |  |  |  |  |  | % GROWTH INHIBITION Liver HEP-2 [3]: 58%
3 | O=c1[nH]cc(F)c(=O)[nH]1 [5-Fluorouracil, reference compound] |  |  |  |  |  |  | inhibition at 20 µM (leukaemia THP-1; 2 × 10^−5 M): 73%; inhibition at 20 µM ([2]; 2 × 10^−5 M): 65%
4 | C[C@@H]1CC[C@H]2[C@@H](C)C(=O)O[C@@H]3O[C@@]4(C)CC[C@@H]1[C@]32OO4 [Artemisinin, artemisinin] |  |  | 19 | 29 | 29 | 31 | pIC50 [4]: 4.53; anti-CMV activity, in words (CMV [5]; in-vitro): lower anti-CMV activity compared to artesunate; activity against P388 leukemia (P388 leukemia): inactive; anticancer activity in 60 cell line panel [6]: very little anticancer activity
5 | C[C@H]1[C@H](OCc2cn(C3O[C@@H]4O[C@@]5(C)CC[C@H]6[C@H](C)CC[C@@H]([C@H]3C)[C@@]46OO5)nn2)O[C@@H]2O[C@]3(C)CC[C@H]4[C@H](C)CC[C@@H]1[C@@]24OO3 (some centres unmarked) [Compound 14] |  | 62 |  | 22 |  | 63 | 
6 | C[C@H]1[C@H](OCCc2cn(-c3ccc(-c4ccc(-n5cc(CCO[C@@H]6O[C@@H]7O[C@@]8(C)CC[C@H]9[C@H](C)CC[C@@H]([C@H]6C)[C@@]79OO8)nn5)cc4)cc3)nn2)O[C@@H]2O[C@@]3(C)CC[C@H]4[C@H](C)CC[C@@H]1[C@@]24OO3 [Compound 13] | 63 | 82 | 41 | 46 | 56 | 66 | 
7 | C[C@H]1[C@H](OC(=O)CCC(=O)O)O[C@@H]2O[C@@]3(C)CC[C@H]4[C@H](C)CC[C@@H]1[C@@]24OO3 [artesunate, sodium artesunate] |  |  |  |  |  |  | in-vitro inhibition of clinical isolates (CMV [5]; 11.1 μM): 50-80%; cytotoxicity (CMV [5]; CMV replication study): no cytotoxicity; CMV replication in rat CMV model (CMV [7]): inhibit CMV replication
8 | C[C@H]1[C@H](OCCc2cn(C3O[C@@H]4O[C@@]5(C)CC[C@H]6[C@H](C)CC[C@@H]([C@H]3C)[C@@]46OO5)nn2)O[C@@H]2O[C@]3(C)CC[C@H]4[C@H](C)CC[C@@H]1[C@@]24OO3 (some centres unmarked) [Compound 15] | 78 | 79 | 29 | 48 | 66 | 70 | 
